Calls of active or inactive are those of the source.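 The calls were made as follows: active = mean IC50 at or below 10 µM; inactive = the rest.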
Tested on: H9c2 cardiomyocytes, H2O2 protection, ATPLite viability, 2 h
Experiment: H2O2-induced H9c2 cell death suppression – ATPLite luminescence, set 2, dose response (AID 602211);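 also: potency is for protection so actives keep ATP signal up against peroxide killing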

| SMILES | IC50 |
| --- | --- |
| O=c1cc(-c2cccnc2)oc2c1ccc1ccccc12 | 31.2 µM (inactive) |
| COc1ccc(-c2cc(C(=O)Nc3ccccc3N3CCOCC3)c3ccccc3n2)cc1OC | 4.52 µM |
| C=CCn1cnc2c(c1=O)c1nc3ccccc3nc1n2/N=C/c1cc(OC)c(OC)c(OC)c1 | 1.09 µM |
| COc1cccc(-c2nn3c(-c4ccccn4)nnc3s2)c1 | 6.65 µM |
| CC(C)(C)NC(=O)c1cccc(NC(=O)c2ccc(NC(=O)c3ccco3)cc2)c1 | > 79 µM (inactive) |
| CCOc1cccc(Nc2cc3n(c(=O)n2)CCc2cc(OC)c(OC)cc2-3)c1 | 23 µM (inactive) |
| COc1cccc(CN2CCN(C(=O)c3cc(-c4cccnc4)nc4ccc(C)cc34)CC2)c1 | 22.9 µM (inactive) |
| COc1cccc(/C=N/Nc2nc3ccccc3n3cnnc23)c1 | > 79 µM (inactive) |
| O=C1c2ccccc2C(=O)N1CCCCSc1nc2ccccc2c(=O)n1CCCN1CCOCC1 | 8.49 µM |
| NC(=O)c1nsc(C(=O)N(c2ccccc2)C(C(=O)NCc2ccc(F)cc2)c2ccc(O)cc2)c1N (stereo unspecified) | 1.98 µM |
| O=C(NCC(=O)N(Cc1cccs1)C(C(=O)NC1CCCC1)c1ccco1)c1cccs1 (stereo unspecified) | 6.37 µM |
| COc1ccc(N(CC(=O)Nc2cccc(C(C)=O)c2)S(=O)(=O)c2ccc(NC(C)=O)cc2)cc1 | 3.03 µM |
| O=C(CN(c1ccc2c(c1)OCCO2)S(=O)(=O)c1ccccc1)Nc1ccc2c(c1)OCO2 | 4.32 µM |
| COc1cc(-c2cc(NC(C)=O)c3ncc(-c4ccc(C(C)=O)cc4)n3c2)cc(OC)c1OC | 6.06 µM |
| CC1Nc2ncnc(N3CCN(c4ccccc4)CC3)c2N(Cc2ccc(Br)cc2)C1=O (stereo unspecified) | 6.65 µM |
| CCC(Oc1ccccc1)C(=O)Nc1ccccc1C(=O)N1CCCCC1 (stereo unspecified) | 36.2 µM (inactive) |
| O=C(CCCn1c(SCC(=O)c2ccc(O)c(O)c2)nc2ccccc2c1=O)NCC1CCCO1 (stereo unspecified) | 21.7 µM (inactive) |
| COc1ccc(-c2cc(NC(C)=O)c3ncc(-c4ccc(OC)c(OC)c4)n3c2)cc1OC | > 79 µM (inactive) |
| CCOc1ccc(C(C(=O)NC2CCCC2)N(C(=O)c2snc(C(N)=O)c2N)c2cccc(O)c2)cc1 (stereo unspecified) | 3.28 µM |
| COc1ccccc1NC(=O)CSc1ccc2nnc(-c3ccc(C)cc3)n2n1 | 3.16 µM |
| CCCn1nc(C(=O)Nc2nc(-c3ccccn3)cs2)c2ccccc2c1=O | 3.37 µM |
| COc1ccc(-c2cc(-c3nnc(COC(=O)C4CC4)o3)c3ccccc3n2)cc1OC | 4.39 µM |
| CCc1nc(N2CCN(C(=O)c3ccco3)CC2)c2oc3ccccc3c2n1 | > 79 µM (inactive) |

| SMILES | IC50 |
| --- | --- |
| O=C(CN1C(=O)C2CC=CCC2C1=O)Nc1nc(-c2ccc(F)cc2)cs1 (stereo unspecified) | > 79 µM (inactive) |
| O=C(C(=O)N(Cc1ccccc1)Cc1ccccc1)c1c(-c2ccccc2)[nH]c2ccccc12 | 0.33 µM |
| COc1cc2c(cc1OC)CN(c1nc(-c3cccnc3)nc3ccccc13)CC2 | 2.93 µM |
| COc1cc(-c2cc3nc(NCCc4ccc(S(N)(=O)=O)cc4)ccn3n2)cc(OC)c1OC | 12.1 µM (inactive) |
| COc1cccc(NC(=O)c2oc3ccc(S(=O)(=O)N4CCOCC4)cc3c2C)c1 | 1.98 µM |
| O=C(Nc1ccc2c(c1)OCO2)c1cnn2c(C(F)(F)F)cc(-c3ccco3)nc12 | 2.58 µM |
| CCOC(=O)N1CCN(C(=O)CSc2nc3ccccc3c(=O)n2-c2ccccc2)CC1 | 18.8 µM (inactive) |
| CCn1c(SCC(=O)Nc2ccccc2N2CCCCC2)nc2c1c(=O)n(C)c(=O)n2C | > 79 µM (inactive) |
| CN(C)S(=O)(=O)n1cc(/C=C(\NC(=O)c2ccccc2F)C(=O)NCCN2CCOCC2)c2ccccc21 | 30.8 µM (inactive) |
| COc1cc(-c2cc(NC=O)c3ncc(-c4ccccc4)n3c2)cc(OC)c1OC | > 79 µM (inactive) |
| O=C(O)c1ccc2c(c1)S(=O)(=O)c1cc(N3CCN(c4cnccn4)CC3)ccc1C2=O | > 79 µM (inactive) |
| Cc1cccc(NC(=O)c2nc[nH]c2C(=O)NCCCCCCNC(=O)c2[nH]cnc2C(=O)Nc2cccc(C)c2)c1 | > 79 µM (inactive) |
| COc1cc(-c2cc(NC(C)=O)c3ncc(-c4ccc(F)cc4)n3c2)cc(OC)c1OC | > 79 µM (inactive) |
| O=C(N/N=C\c1ccccn1)c1cccc(C(=O)N/N=C\c2ccccn2)n1 | 2.07 µM |
| Cc1ccc2cc3c(NC(=O)c4cccnc4)nn(C)c3nc2c1 | 15.9 µM (inactive) |
| COc1ccc(C(C(=O)NCc2ccccc2)N(Cc2ccco2)C(=O)c2snc(C(N)=O)c2N)cc1 (stereo unspecified) | 3.63 µM |
| O=C(Nc1nc(-c2cc(F)ccc2F)cs1)C1=NN(c2ccccc2)C(=O)CC1 | 6.26 µM |
| CC(=O)N1CCN(c2ccccc2NC(=O)c2ccc(-c3cccc([N+](=O)[O-])c3)o2)CC1 | 23.7 µM (inactive) |
| COCCn1nnnc1CN(CCc1ccccc1)Cc1cc2cc(OC)ccc2[nH]c1=O | 5.12 µM |
| Cn1c(-n2c(CCCN3C(=O)c4ccccc4C3=O)nc3ccccc3c2=O)nc2ccccc21 | 11.6 µM (inactive) |
| CC(=O)Nc1ccc(S(=O)(=O)N(Cc2ccco2)Cc2cc3ccccc3[nH]c2=O)cc1 | > 79 µM (inactive) |
| COc1cc(NC(=O)c2cc3nc(-c4ccccc4)cc(-c4ccccc4)n3n2)cc(OC)c1OC | 3.87 µM |
| CCC(C)N1C(=O)S/C(=C/c2ccc3c(c2)n(C)c(=O)n3C)C1=O (stereo unspecified) | > 79 µM (inactive) |

| SMILES | IC50 |
| --- | --- |
| COc1cc(OC)cc(C(=O)Nc2ccc(C(=O)Nc3ccccc3OC)cc2)c1 | 10.2 µM (inactive) |
| COc1ccc(-c2ccc3[nH]c4c(c3c2)CCN2C[C@H]3[C@H](C)ON(C)[C@H]3C[C@@H]42)cc1 | > 79 µM (inactive) |
| COC(=O)C1=C(C)N(CCc2ccc(OC)cc2)C(=O)C1 | 21.9 µM (inactive) |
| COc1cc(OC)cc(-c2cc3nc(C)c(CCC(=O)Nc4nc(C)cs4)c(C)n3n2)c1 | 4.8 µM |
| COc1ccc(OC)c(NC(=O)COC(=O)c2c3c(nc4ccccc24)CCCC3)c1 | 1.15 µM |
| N#C/C(=C\Nc1ccc2c(c1)OCCO2)c1nc2ccccc2[nH]1 | 9.06 µM |
| COc1cccc(CN(C)C(=O)C(Cc2ccccc2)NC(=O)c2ccccc2)c1OC (stereo unspecified) | 6.8 µM |
| COc1ccc2cc3cc(C(=O)NCCc4ccc(OC)c(OC)c4)oc3nc2c1 | 4.28 µM |
| O=C(c1cc(-c2cccnc2)nc2ccc(Br)cc12)N1CCN(c2ncccn2)CC1 | 3.6 µM |
| CC(C)(C)OC(=O)C[C@@H]1C/C=C\C[C@@H](CC(=O)N[C@@H](CO)Cc2ccccc2)C(=O)NC[C@@H](c2ccccc2)OC1=O | 12.9 µM (inactive) |
| COc1cc(/C=C(\C#N)C(=O)Nc2ccccc2F)ccc1OCCN1CCOCC1 | 15.9 µM (inactive) |
| COC(=O)c1cc2ccc(OC)cc2c2cc(OC)c(OC)cc12 | > 79 µM (inactive) |
| COc1cc(-c2cc(C(=O)Nc3ccccc3N3CCOCC3)c3ccccc3n2)cc(OC)c1OC | 5.8 µM |
| O=C1NC(Cc2ccc(O)cc2)c2nc3ccc(F)cc3c(=O)n2-c2cc3ccccc3cc21 (stereo unspecified) | 3.72 µM |
| COc1cccc(-c2nn(-c3ccccc3)cc2C(=O)Nc2nccs2)c1 | 12.8 µM (inactive) |
| NC(=O)c1nsc(C(=O)N(CCc2ccccc2)C(C(=O)NC2CCCC2)c2ccco2)c1N (stereo unspecified) | 11.3 µM (inactive) |
| COc1ccc(OC)c(/C=N/Nc2nncn2/N=C/c2cc(OC)ccc2OC)c1 | 6.17 µM |
| CC(C(=O)NC1CCCC1)N(C(=O)Cn1nnc(-c2ccc(F)cc2)n1)c1ccccc1F (stereo unspecified) | 1.68 µM |
| COc1ccc(-c2cc3nc(-c4ccccc4)cc(N4CCN(C(C)=O)CC4)n3n2)cc1 | 8.73 µM |
| CN(C(=O)c1sc2nc(N3CCOCC3)c3c(c2c1N)CCCC3)c1ccccc1 | 2.64 µM |
| COc1cc(-c2cc(C(=O)NCc3ccco3)c3ccccc3n2)cc(OC)c1OC | 13.5 µM (inactive) |
| CC/C(C)=N\N=C\c1c(O)n(CC)c2cc(C3=NNC(=O)CC3)ccc12 | 16.6 µM (inactive) |
| COc1ccc(-c2oc(=O)c3cc(OC)c(OC)cc3c2C#CCCO)cc1 | 6.71 µM |

| SMILES | IC50 |
| --- | --- |
| COc1cc(NC(=O)c2cccc3c(-c4cnn(C)c4)coc23)cc(OC)c1OC | 1.56 µM |
| CN(C)S(=O)(=O)c1ccc2[nH]cc(/C=C/c3nc4ccccc4c(=O)n3-c3ccccc3)c2c1 | 1.26 µM |
| COc1cccc(/C=N/NC(=O)c2oc3nc(-c4ccccc4)cc(-c4ccco4)c3c2N)c1 | 5.87 µM |
| Cc1cc(N)n(-c2nc(-c3cccnc3)nc3ccccc23)n1 | 16.2 µM (inactive) |
| Cn1c(=O)n(CCc2ccccc2)c(=O)c2c1nc1n2CCN1Cc1ccco1 | > 79 µM (inactive) |
| C[C@H](NC(=O)c1nc[nH]c1C(=O)NCC(=O)OCc1ccccc1)C(=O)OCc1ccccc1 | 26.2 µM (inactive) |
| O=C(NCc1ccco1)c1cc(-c2cccnc2)nc2ccc(Cl)cc12 | 4.95 µM |
| COc1cccc(/C=N/NC(=O)c2ccncc2)c1OC(=O)c1ccc(Br)cc1 | 15.4 µM (inactive) |
| COc1cc(/C=N/n2nnnc2Nc2ccccc2)cc(OC)c1OC | 9.53 µM |
| CCOC(=O)C1=C(CC)Nc2ccccc2N=C1NC(=O)c1ccc(S(=O)(=O)N(C)C)cc1 | 4.8 µM |
| COc1ccc(-c2nn3c(-c4ccco4)nnc3s2)cc1OC | 12.3 µM (inactive) |
| COc1cccc(-c2cnc3c(NC(C)=O)cc(-c4cccc(NS(C)(=O)=O)c4)cn23)c1 | 7.84 µM |
| CCOC(=O)C1CCCN(C(=O)CCC(=O)Nc2ccc3nc(N4CCOCC4)cc(C)c3c2)C1 (stereo unspecified) | > 79 µM (inactive) |
| C[C@H](CO)N1C[C@H](C)[C@@H](CN(C)C(=O)Nc2ccc3c(c2)OCO3)Oc2c(NC(=O)Nc3ccc(C(F)(F)F)cc3)cccc2C1=O | 40.3 µM (inactive) |
| O=C(COC(=O)c1c2c(nc3ccccc13)/C(=C/c1cccc([N+](=O)[O-])c1)CCC2)NC1CCS(=O)(=O)C1 (stereo unspecified) | 4.47 µM |
| O=C(CSc1nnc(-c2ccccc2)n1Cc1ccccc1)NNC(=O)c1ccccc1O | 4.2 µM |
| CCOCCn1ccc2c(OCC(=O)Nc3cc(OC)ccc3OC)cccc2c1=O | 5.23 µM |
| CCOC(=O)c1cc2c(=O)n3cccc(C)c3nc2n(CCCOC)c1=NC(=O)c1cccnc1 | 2.87 µM |
| CCc1nc2ccc(C(=O)Nc3cc(-c4ccccc4)ccc3OC)cn2c1N(C)Cc1nccs1 | 5.95 µM |
| O=C(Nc1ccccc1)c1nc[nH]c1C(=O)NCCCCCCNC(=O)c1[nH]cnc1C(=O)Nc1ccccc1 | 5.52 µM |
| CCN(CC)S(=O)(=O)c1ccc(N2CCOCC2)c(NC(=O)c2cc(-c3ccccn3)nc3ccccc23)c1 | 1.34 µM |
| CCN(C[C@H]1N[C@@](CC)(C(=O)OC)[C@H]2C(=O)N(Cc3ccccc3)C(=O)[C@@H]12)C(=O)c1ccc(C(C)(C)C)cc1 | > 79 µM (inactive) |

From PubChem BioAssay AID602211 (Sanford-Burnham Center for Chemical Genomics, 2012)
